# Measurements: patent US5672603A, “Apoptosis regulating composition” (Otsuka Pharmaceutical Co., Ltd., priority 1991, dated 1997)
# Values joined by “and” are separate entries in the source; they are usually repeats but may differ in a detail not shown here. Identical values can stand only once. “Also recorded” adds a separate entry of the source.
# Columns and labels:
# PC12 cells = experiment: Effect on PC12 cells (morphology, phase contrast microscope)
# [1] = tested on: Human transformed normal T cells (MT-4), HIV-infected; experiment: Antiretrovirus activity test: viable HIV-infected MT-4 cells; assay type: cell-based; conditions: for Number of HIV-infected cells: 3 days, control 105
# Description: (§1) Human transformed normal T cells (MT-4) [Nagumo, T. and Hoshino, H., Jpn. J. Cancer Res. 79, 9-11 (1988)] were used to prepare a suspension of 2×10^5 cells/ml in RPMI-1640 medium (Gibco) supplemented 10% FCS (Gibco).
# (§2) Compound 1 was dissolved in hydrochloric acid, diluted in the same medium as above, neutralized with 2N NaOH and adjusted to concentrations of 1 μg/ml, 10 μg/ml, 30 μg/ml and 100 μg/ml.
# (§3) The cells prepared in (a) above and the test compound (final concentration: 1 μg/ml, 10 μg/ml, 30 μg/ml or 100 μg/ml) prepared in (b) above were placed in the wells of a 12-well culture plate (Costar). Then, 50 μl/well of HIV suspension was added to infect the cells in each well, followed by 3-day incubation at 37° C. in a 5% carbon dioxide incubator. As a control, the medium without addition of the test compound was used. After completion of incubation, the cell suspension in each well was taken and viable cells were counted.
# anti-platelet antibodies = experiment: Assay of anti-platelet antibodies in autoimmune disease mice; assay type: in vivo, W/BF1 mice; conditions: for Anti-platelet antibodies, % positive, Mean ± SE / Anti-platelet antibodies, % positive, individual mice: 20 weeks of age; for Anti-platelet antibodies, % positive, Mean ± SE: untreated 19.6 ± 5.5
# Description: W/BF1 :(NZW×BXSB)F1 mice were used at the age of 14 weeks (purchased from Kiwa Experimental Animal). Groups of 10 mice were used in each experiment.
# Compound 1 (Lot No. 9D87M) was used as suspended in a 0.5% solution of carborymethylcellulose (CMC, Cellogan). Compound 1 was administered to mice by oral garage in doses of 100 and 300 mg/kg body weight/day for 6 weeks from 14 weeks of age to 20 weeks of age according to the 5-day administration and 2-day cessation schedule. As a control, an untreated group was provided. […] Statistic analysis was performed by the generalized Wilcoxon test with respect to the untreated group.
# (3) Oyaizu et al. have reported that in W/BF1 mice, thrombocytopenia is associated with the appearance of anti-platelet antibodies.
# The platelets collected from Balb/c mice and the plasma collected from W/BF1 mice treated up to the age of 20 weeks were incubated together at room temperature for 30 minutes. The mixture was washed twice and allowed to react with FITC-labeled anti-mouse IgG (Tago, Code No. 6250), and after staining, anti-platelet antibodies were assayed with an FACS analyzer (EPICS-Profile II, Coulter). The negative control was set so that the plasma from Balb/c mice was 98% negative. The positive rate of each sample was determined.
# Reverse transcriptase = experiment: Antiretrovirus activity test: reverse transcriptase activity of virus from culture supernatant; assay type: cell-based, HIV; conditions: for Reverse transcriptase activity (cpm): control 1316
# Description: as §1, §2, §3
# The cell suspension in each well was then centrifuged (1500 rpm×5 min) and 750 μl of culture supernatant was obtained.
# The culture supernatant, 750 μ, obtained above was placed in an Eppendorf tube (1.8 ml) and 4 M NaCl and PEG-6000 (Sigma) were added. The mixture was allowed to react at 0° C. for 2 hours to precipitate the virus and the virus was harvested by centrifugation (15000 rpm×20 min). To this virus pellet were added solution 1 [50% glycerol (Wako Pure Chemical), 25 mM Tris-HCl (pH 7.5), 50 mM KCl 0.025% Triton X-100 (Sigma) and 5 mM DTT (Sigma)] and solution II [0.9% Triton X-100 (Sigma) and 1.5M KCl] for lysis at 0° C. for 30 min. To the resultant 10-μl virus solution were added 5 mg/ml bovine serum albumin (BSA, Sigma), 1 M Tris-HCl, 100 mM DTT (Sigma), 1M KCl, 10 mM Poly A (Sigma), 0.15 mM TTP (Sigma), 200 mM MgCl2, 0.15 mM Oligo(dT) (NEN) and [^3 H]-TTP (NEN) and the mixture was allowed to react at 37° C. for 1 hour. The reaction was then stopped by placing the mixture in ice and the whole amount was spotted on a membrane filter (DE-81 Filter, Whatman) and dried. After drying, the filter was washed three times with 0.5 M Na2 HPO4 and rinsed in ethanol and dried. The radioactivity of [^3 H]-TTP taken into DNA on the membrane was counted with a liquid scintillation counter to determine reverse transcriptase activity (unit, cpm).
# [2] = tested on: human peripheral blood acute lymphocytic leukemia cells (Molt-4); experiment: ATL-infected cell growth inhibition test: ATLV-noninfected cells; assay type: cell-based; conditions: for Number of ATLV-noninfected cells: 4 days, control 13.9
# Description: Human peripheral blood acute lymphocytic leukemia cells (Molt-4) [J. Minowada, et al., J. Natl. Cancer Inst., 49, 891-895 (1972): ATCC CRL1582] were used to prepare a suspension of 1×10^5 cells/ml in RPMI-1640 medium (Gibco) supplemented 10% fetal calf serum (FCS, Gibco) for use as ATL virus-noninfected cells.
# Compound 1 was dissolved in hydrochloric acid, diluted with the same medium as above, neutralized with 2N NaOH and adjusted to concentrations of 1 μg/ml, 10 μg/ml and 30 μg/ml.
# The cells prepared in (a) and (b) above were respectively placed in wells of a 24-well culture plate (Nunc), followed by addition of the test compound prepared in (c) (final concentration: 1 μg/ml, 10 μg/ml or 30 μg/ml), and cultured at 37° C. in a 5% carbon dioxide incubator for 4 days. As a control, the medium without addition of the test compound was used. After completion of incubation, the cell suspension in each well was taken for determination of viable cells.
smiles,measurement,setting,value
"COc1ccc(C(=O)N2CCN(c3ccc4c(c3)CCC(=O)N4)CC2)cc1OC [Compound 1, 6-[4-(3,4-Dimethoxybenzoyl)-1-piperazinyl]-3,4-dihydrocarbostyril]",Cells with morphological changes induced,"PC12 cells; 30 μg/ml, day 3",30-50 % of the total cell population
same,Formation of nerve fiber-like processes,"PC12 cells; 30 μg/ml, most prominent with FCS 0.3%, day 3",formation of nerve fiber-like processes; also recorded: formation of nerve-like processes is observed
same,"Elongation of the process, combination of Compound 1 and NGF","PC12 cells; with NGF, 0.3% FCS, vs Compound 1 or NGF alone",promotes elongation of the process as compared with Compound 1 or NGF alone
same,Inhibition of HIV-infected cell growth (in words),[1],inhibits cell growth
same,Number of HIV-infected cells,[1]; 1 μg/ml,100 ×10^4
same,Number of HIV-infected cells,[1]; 10 μg/ml,88 ×10^4
same,Number of HIV-infected cells,[1]; 30 μg/ml,78 ×10^4
same,Number of HIV-infected cells,[1]; 100 μg/ml,85 ×10^4
same,"Anti-platelet antibodies, % positive, Mean ± SE",anti-platelet antibodies; 100 mg/kg/day,13.3 ± 2.7% and 13.2±2.7%
same,"Anti-platelet antibodies, % positive, individual mice","anti-platelet antibodies; 100 mg/kg, mouse Nos. 1-10",3.7% and 13.5% and 3.1% and 17.3% and 21.5% and 16.8% and 18.2% and 7.8% and 8.5% and 27.1%
same,"Anti-platelet antibodies, % positive, Mean ± SE",anti-platelet antibodies; 300 mg/kg/day,10.7 ± 2.2%
same,"Anti-platelet antibodies, % positive, individual mice","anti-platelet antibodies; 300 mg/kg, mouse Nos. 1-4, 6-9",2.3% and 11.4% and 14.1% and 6.0% and 16.4% and 12.1% and 4.1% and 19.5%
same,Inhibition of anti-platelet antibodies (in words),anti-platelet antibodies; 100 and 300 mg/kg/day,dose-dependent inhibition of anti-platelet antibodies
same,Reverse transcriptase activity (cpm),Reverse transcriptase; 1 μg/ml,1423 cpm
same,Reverse transcriptase activity (cpm),Reverse transcriptase; 10 μg/ml,1494 cpm
same,Inhibition of reverse transcriptase activity (in words),Reverse transcriptase; 30 μg/ml and 100 μg/ml,inhibits reverse transcriptase activity remarkably
same,Reverse transcriptase activity (cpm),Reverse transcriptase; 30 μg/ml,372 cpm
same,Reverse transcriptase activity (cpm),Reverse transcriptase; 100 μg/ml,898 cpm
same,Number of ATLV-noninfected cells,[2]; 1 μg/ml,13.9 ×10^5
same,Number of ATLV-noninfected cells,[2]; 10 μg/ml,12.2 ×10^5
same,Number of ATLV-noninfected cells,[2]; 30 μg/ml,12.8 ×10^5
same,Effect on ATLV-noninfected cells (in words),[2]; 1-30 μg/ml,does not affect ATLV-noninfected cells
